Experimental data reported in patent publication US7939536B2, “Pyrimidinylisoxazole derivatives” (Aska Pharmaceutical Co., Ltd., priority 2004, dated 2011).

Assay: Measurement of the compounds' metabolic rate (human liver S9)
Format: in vitro ADME
Settings: human liver S9 0.5 mg protein/mL, NADPH generating system, 1 μmol/L test compound, 37° C. for 5 minutes, LC/MS/MS
Method: (2) Measurement of the Compounds' Metabolic Rate:
Each test compound was added to potassium phosphate buffer (50 mmol/L, pH7.4) containing NADPH generating system (comprising 3.3 mmol/L MgCl2, 3.3 mmol/L glucose 6-phosphate, 1.3 mmol/L β-NADP^+ and 0.4 unit/mL glucose 6-phosphate dehydrogenase) (in which occasion the final concentration was rendered 1 μmol/L) and incubated at 37° C. for 2 minutes. After the incubation, a suspension of human liver S9(the supernatant fraction obtained by centrifuging comminuted human liver cell fluid at 9000×g) in potassium phosphate buffer was added to the system, to the final concentration of 0.5 mg protein/mL. This reaction mixture was incubated at 37° C. for 5 minutes, and to which 4 volume times the reaction mixture of acetonitrile was added, mixed, cooled with ice and centrifuged (2000×g, 10 minutes). A part of the supernatant was taken and analyzed by LC/MS/MS, to determine the remaining rate of unchanged substance in the reaction mixture. The results are shown in the following Table A, concurrently with the measured results of TNF-α production inhibition action in (1) above.

| SMILES | Metabolic rate (remaining rate of unchanged substance: %) [%] |
| --- | --- |
| O=C(Cc1c(F)cccc1Cl)Nc1onc(-c2ccc(F)cc2)c1-c1ccncn1 [Example 13, 5-[(2-Chloro-6-fluorophenyl)acetylamino]-3-(4-fluorophenyl)-4-(4-pyrimidinyl)isoxazole] | 16.1 |
| Cc1cc(-c2noc(NC(=O)Cc3ccccc3C)c2-c2ccncn2)ccc1F [Example 257, 3-(3-Methyl-4-fluorophenyl)-5-[(2-methylphenyl)acetylamino]-4-(4-pyrimidinyl)isoxazole] | 52.6 |
| O=C(Cc1ccccc1Cl)Nc1onc(-c2ccc(F)cc2)c1-c1ccncn1 [Example 5, 5-[(2-chlorophenyl)acetylamino]-3-(4-fluorophenyl)-4-(4-pyrimidinyl)isoxazole] | 5.8 |
| O=C(Cc1ccccc1Cl)Nc1onc(-c2ccc(Cl)cc2)c1-c1ccncn1 [Example 61, 3-(4-Chlorophenyl)-5-[(2-chlorophenyl)acetylamino]-4-(4-pyrimidinyl)-isoxazole] | 53.1 |
| Cc1cccc(CC(=O)Nc2onc(-c3cccc(C)c3)c2-c2ccncn2)c1 [Example 215, 3-(3-Methylphenyl)-5-[(3-methylphenyl)acetylamino]-4-(4-pyrimidinyl)isoxazole] | 38.5 |
| Cc1cccc(-c2noc(NC(=O)Cc3ccccc3C)c2-c2ccncn2)c1 [Example 214, 3-(3-Methylphenyl)-5-[(2-methylphenyl)acetylamino]-4-(4-pyrimidinyl)isoxazole] | 59.9 |
| COc1ccc(-c2noc(NC(=O)Cc3ccccc3Cl)c2-c2ccncn2)c(F)c1 [Example 174, 5-[(2-Chlorophenyl)acetylamino]-3-(2-fluoro-4-methoxyphenyl)-4-(4-pyrimidinyl)isoxazole] | 24.1 |
| Cc1cccc(CC(=O)Nc2onc(-c3ccc(F)cc3F)c2-c2ccncn2)c1 [Example 121, 3-(2,4-Difluorophenyl)-5-[(3-methylphenyl)acetylamino]-4-(4-pyrimidinyl)isoxazole] | 46.6 |
| Cc1cccc(-c2noc(NC(=O)Cc3ccccc3Cl)c2-c2ccncn2)c1 [Example 201, 5-[(2-Chlorophenyl)acetylamino]-3-(3-methylphenyl)-4-(4-pyrimidinyl)isoxazole] | 21.2 |
| Cc1ccc(F)c(-c2noc(NC(=O)Cc3ccccc3)c2-c2ccncn2)c1 [Example 224, 3-(2-Fluoro-5-methylphenyl)-5-(phenylacetylamino)-4-(4-pyrimidinyl)isoxazole] | 39.8 |
| Cc1cccc(-c2noc(NC(=O)Cc3ccccc3Br)c2-c2ccncn2)c1 [Example 202, 5-[(2-Bromophenyl)acetylamino]-3-(3-methylphenyl)-4-(4-pyrimidinyl)isoxazole] | 43.6 |
| COc1cccc(CC(=O)Nc2onc(-c3ccc(F)c(C)c3)c2-c2ccncn2)c1 [Example 253, 5-[(3-Methoxyphenyl)acetylamino]-3-(3-methyl-4-fluorophenyl)-4-(4-pyrimidinyl)isoxazole] | 33.1 |
| O=C(Cc1ccccc1Cl)Nc1onc(-c2ccc(F)cc2F)c1-c1ccncn1 [Example 105, 5-[(2-Chlorophenyl)acetylamino]-3-(2,4-difluorophenyl)-4-(4-pyrimidinyl)isoxazole] | 20.4 |
